From article PMC9404989, “Design and Evaluation of Short Bovine Lactoferrin-Derived Antimicrobial Peptides against Multidrug-Resistant Enterococcus faecium” (Antibiotics, 2022)
Converted amounts (≈) assume the structure as drawn. Read-outs that look alike come from different tables or passages of the source. No end group written: not given here.

What was measured:
[1] = test system: E. faecium strain C68 on porcine skin; test: Ex vivo porcine skin infection assay; set-up: species or system Enterococcus faecium; conditions: exponential cells
Excerpt: We evaluated the efficacy of designed lactoferrin AMPs in an ex vivo porcine skin model previously described with minor modifications. We first cleaned the shaved porcine skin (Fisher Scientific, Hampton, NH, USA) with 70% ethanol and then water, and glued polyethylene tubing (5 mm) (Nalgene VWR 228-0170, Radnor, PA, USA) to the skin samples with cyanoacrylate glue (Fisher Scientific, Hampton, NH, USA). Using disposable razors, we cut each piece of skin glued to the tube and inserted it into a 12-well tissue culture plate (Falcon, Cat No. 353182). We infected each skin with 1 × 10^6 CFU of exponential or persister E. faecium strain C68 cells in a total volume of 10 µL. Following an incubation of 1 h at 37 °C, we treated the skin with 50 µL with 5L and 6L at concentrations of 10× or 1× MIC. After an additional 4 h of incubation at 37 °C, we washed each tubing well with 250 µL of PBS (pH 7.4) containing 0.05% Triton X-100 to remove bacteria. After serially diluting the bacterial sample, we counted their CFUs.

E. faecium strain C68 [2] = test: microbe, parasite or virus in culture; assay type: cell-based, Enterococcus faecium
Method: (§1) To determine the MICs of peptides, we used the broth microdilution method described by the Clinical and Laboratory Standards Institute. We made serial dilutions of 10× concentration (10 µL) for each peptide in duplicates in 96-well plates (Cat No. 3595, Corning, New York, NY, USA). We added 90 µL of logarithmic-phase bacteria at 5 × 10^5 CFU/mL (in BHI media) to the peptides and then incubated the plates at 37 °C for 18 h. We measured the OD600 absorbance readings using the Spectra Max i3x spectrophotometer (Molecular Devices, San Jose, CA, USA) and determined the MIC as the peptide concentration that inhibits the growth of bacteria.

E. faecium strain C68 [3] = test: microbe, parasite or virus in culture; assay type: cell-based, Enterococcus faecium; conditions: for MIC + CaCl2 (2.5 mM) / MIC + MgSO4 (1 mM) / MIC + NaCl (150 mM) / MIC + ZnSO4 (8 µM): strain C68, 18 h; for MIC: Enterococcus faecium, C68
Method: as §1
To investigate the activity of peptides in various salt concentrations, we included physiologically relevant salts in the BHI medium.

S. aureus MW2 = test: microbe, parasite or virus in culture; assay type: cell-based, Staphylococcus aureus; conditions: for MIC S. aureus MW2: MW2, 18 h
Method: as §1

E. faecalis MMH594 = test: microbe, parasite or virus in culture; assay type: cell-based; conditions: for MIC E. faecalis MMH594: MMH594, 18 h
Method: as §1

E. faecalis V583 = test: microbe, parasite or virus in culture; assay type: cell-based; conditions: for MIC E. faecalis V583: V583, 18 h
Method: as §1

E. faecalis OG1RF = test: MIC assay, E. faecalis OG1RF; assay type: cell-based; conditions: rifampin and fusidic acid resistant
Method: as §1

[4] = HPLC retention time on C18 reverse-phase column; assay type: physicochemical
Excerpt: Table 1 Physical parameters and the minimal inhibitory concentration (µg/mL) of designed peptides against E. faecium. | column: rT ^f (min)

E. faecium D14 = test: microbe, parasite or virus in culture; assay type: cell-based, Enterococcus faecium
Method: as §1

E. faecium D24 = test: microbe, parasite or virus in culture; assay type: cell-based, Enterococcus faecium
Method: as §1

E. faecium D25 = test: microbe, parasite or virus in culture; assay type: cell-based, Enterococcus faecium
Method: as §1

E. faecium D29 = test: microbe, parasite or virus in culture; assay type: cell-based, Enterococcus faecium
Method: as §1

E. faecium E007 = test: microbe, parasite or virus in culture; assay type: cell-based, Enterococcus faecium; conditions: for MIC: Enterococcus faecium
Method: as §1

E. faecium WC176 = test: organism not typed; assay type: cell-based, Enterococcus faecium; conditions: for MIC: read-out: MIC WC176
Method: as §1

[5] = test system: E. faecium strain C68 established biofilms; assay type: cell-based, Enterococcus faecium; conditions: 24 h established biofilms, 24 h treatment, crystal violet
Method: We prepared exponential cultures of E. faecium strain C68 (adjusted to 1 × 10^8 CFU/mL) in BHI media (supplemented with 0.2% glucose) from overnight grown cultures. We added 100 µL of the bacterial culture to wells of flat-bottomed 96-well polystyrene microtiter plates (Cat No. 3595, Corning, NY, USA). We then incubated the plates at 37 °C for 24 h in static conditions to allow biofilm formation. After incubation, we carefully pipetted out the media and washed the wells with PBS (Gibco, Waltham, MA, USA) to remove loosely attached planktonic cells. We treated the established biofilms in each well with 10 µL of serially diluted 10× peptide solution, followed by the addition of 90 μL of BHI media (supplemented with 0.2% glucose). The plates were incubated for another 24 h at 37 °C before processing for biomass and live-cell contents. We quantitated the concentration of peptide that disrupts 50% of established biofilms (MBEC50).

[6] = test system: E. faecium E007 established biofilms; assay type: cell-based, Enterococcus faecium

CNC(C)C1CCC(N)C(OC2C(N)CC(N)C(OC3OCC(C)(O)C(NC)C3O)C2O)O1 (stereo not drawn) [Gentamicin, reference compound]
bacterial burden, control antibiotic [1]: ineffective in reducing the bacterial burden

RLWLWRRRWLWR-NH2 [Peptide 4L]
MIC EF C68 (E. faecium strain C68 [2]; strain C68, 18 h): 4 µg/mL | MIC Media Only (E. faecium strain C68 [2]; strain C68, 18 h): 4 µg/mL | MIC + CaCl2 (2.5 mM) (E. faecium strain C68 [3]): >32 µg/mL | MIC + MgSO4 (1 mM) (E. faecium strain C68 [3]): 8 µg/mL | MIC + NaCl (150 mM) (E. faecium strain C68 [3]): 8 µg/mL | MIC + ZnSO4 (8 µM) (E. faecium strain C68 [3]): 4 µg/mL | MIC S. aureus MW2 (S. aureus MW2): > 32 µg/mL | MIC E. faecalis MMH594 (E. faecalis MMH594): > 32 µg/mL | MIC E. faecalis V583 (E. faecalis V583): > 32 µg/mL | MIC E. faecalis OG1RF (E. faecalis OG1RF): > 32 µg/mL | rT (HPLC retention time) [4]: 18.377 min

CN[C@H](CC(C)C)C(=O)N[C@H]1C(=O)N[C@@H](CC(N)=O)C(=O)N[C@H]2C(=O)N[C@H]3C(=O)N[C@H](C(=O)N[C@H](C(=O)O)c4cc(O)cc(O)c4-c4cc3ccc4O)[C@H](O)c3ccc(c(Cl)c3)Oc3cc2cc(c3O[C@@H]2O[C@H](CO)[C@@H](O)[C@H](O)[C@H]2O[C@H]2C[C@](C)(N)[C@H](O)[C@H](C)O2)Oc2ccc(cc2Cl)[C@H]1O [Vancomycin, reference compound]
MIC (E. faecium D14; Enterococcus faecium, D14, read-out: MIC D14): 2 µg/mL (≈ 1.38 µM) | MIC (E. faecium D24; Enterococcus faecium, D24, read-out: MIC D24): 1 µg/mL (≈ 0.69 µM) | MIC (E. faecium D25; Enterococcus faecium, D25, read-out: MIC D25): 1 µg/mL (≈ 0.69 µM) | MIC (E. faecium D29; Enterococcus faecium, D29, read-out: MIC D29): 1 µg/mL (≈ 0.69 µM) | MIC (E. faecium E007; E007, read-out: MIC E007): 1 µg/mL (≈ 0.69 µM) | MIC (E. faecium strain C68 [2]; Enterococcus faecium, C68, 18 h, read-out: MIC EF C68): > 32 µg/mL | MIC (E. faecium WC176): 16 µg/mL (≈ 11 µM) | MIC (S. aureus MW2; Staphylococcus aureus, MRSA, read-out: MIC S. aureus MW2): 1 µg/mL (≈ 0.69 µM) | MIC (E. faecalis MMH594; Enterococcus faecalis, MMH594, read-out: MIC E. faecalis MMH594): > 32 µg/mL | MIC (E. faecalis V583; Enterococcus faecalis, V583, read-out: MIC E. faecalis V583): > 32 µg/mL | MIC (E. faecalis OG1RF; Enterococcus faecalis, OG1RF): > 32 µg/mL

RRWQWRLLLL-NH2 [Peptide 1L]
MIC EF C68 (E. faecium strain C68 [2]; strain C68, 18 h): 16 µg/mL | MIC Media Only (E. faecium strain C68 [2]; strain C68, 18 h): 16 µg/mL | MIC + CaCl2 (2.5 mM) (E. faecium strain C68 [3]): 32 µg/mL | MIC + MgSO4 (1 mM) (E. faecium strain C68 [3]): 8 µg/mL | MIC + NaCl (150 mM) (E. faecium strain C68 [3]): 4 µg/mL | MIC + ZnSO4 (8 µM) (E. faecium strain C68 [3]): 4 µg/mL | MIC S. aureus MW2 (S. aureus MW2): > 32 µg/mL | MIC E. faecalis MMH594 (E. faecalis MMH594): > 32 µg/mL | MIC E. faecalis V583 (E. faecalis V583): > 32 µg/mL | MIC E. faecalis OG1RF (E. faecalis OG1RF): > 32 µg/mL | rT (HPLC retention time) [4]: 18.083 min

LRWLWRRRWLWR-NH2 [Peptide 3L]
MIC EF C68 (E. faecium strain C68 [2]; strain C68, 18 h): 16 µg/mL | MIC Media Only (E. faecium strain C68 [2]; strain C68, 18 h): 16 µg/mL | MIC + CaCl2 (2.5 mM) (E. faecium strain C68 [3]): >32 µg/mL | MIC + MgSO4 (1 mM) (E. faecium strain C68 [3]): 8 µg/mL | MIC + NaCl (150 mM) (E. faecium strain C68 [3]): 16 µg/mL | MIC + ZnSO4 (8 µM) (E. faecium strain C68 [3]): 4 µg/mL | MIC S. aureus MW2 (S. aureus MW2): > 32 µg/mL | MIC E. faecalis MMH594 (E. faecalis MMH594): > 32 µg/mL | MIC E. faecalis V583 (E. faecalis V583): > 32 µg/mL | MIC E. faecalis OG1RF (E. faecalis OG1RF): > 32 µg/mL | rT (HPLC retention time) [4]: 16.145 min

RRWLWRRLWLWR-NH2 [Peptide 7L]
MIC D14 (E. faecium D14; D14, 18 h): 8 µg/mL | MIC D24 (E. faecium D24; D24, 18 h): 4 µg/mL | MIC D25 (E. faecium D25; D25, 18 h): 4 µg/mL | MIC D29 (E. faecium D29; D29, 18 h): 8 µg/mL | MIC E007 (E. faecium E007; E007, 18 h): 4 µg/mL | MIC EF C68 (E. faecium strain C68 [2]; strain C68, 18 h): 4 µg/mL | MIC Media Only (E. faecium strain C68 [2]; strain C68, 18 h): 4 µg/mL | MIC + CaCl2 (2.5 mM) (E. faecium strain C68 [3]): 8 µg/mL | MIC + MgSO4 (1 mM) (E. faecium strain C68 [3]): 4 µg/mL | MIC + NaCl (150 mM) (E. faecium strain C68 [3]): 4 µg/mL | MIC + ZnSO4 (8 µM) (E. faecium strain C68 [3]): 2 µg/mL | MIC WC176 (E. faecium WC176; WC176, 18 h): 16 µg/mL | MIC S. aureus MW2 (S. aureus MW2): > 32 µg/mL | MIC E. faecalis MMH594 (E. faecalis MMH594): > 32 µg/mL | MIC E. faecalis V583 (E. faecalis V583): > 32 µg/mL | MIC E. faecalis OG1RF (E. faecalis OG1RF): > 32 µg/mL | rT (HPLC retention time) [4]: 16.290 min | MBEC50 (established biomass) [5]: failed to achieve an MBEC50 | concentration killing 50% of live bacteria cells in established biofilms ([6]; strain E007, 24 h established biofilms, XTT): > 32 µg/mL | established biomass disrupted ([6]; strain E007, at 32 µg/mL): 25–30%

RRWLWRL-NH2 [Peptide 2L]
MIC EF C68 (E. faecium strain C68 [2]; strain C68, 18 h): >32 µg/mL | MIC Media Only (E. faecium strain C68 [2]; strain C68, 18 h): >32 µg/mL | MIC S. aureus MW2 (S. aureus MW2): > 32 µg/mL | MIC E. faecalis MMH594 (E. faecalis MMH594): > 32 µg/mL | MIC E. faecalis V583 (E. faecalis V583): > 32 µg/mL | MIC E. faecalis OG1RF (E. faecalis OG1RF): > 32 µg/mL | rT (HPLC retention time) [4]: 13.321 min

CC1(C)S[C@@H]2[C@H](NC(=O)[C@H](N)c3ccccc3)C(=O)N2[C@H]1C(=O)O [Ampicillin, reference compound]
MIC (E. faecium D14; Enterococcus faecium, D14; read-out: MIC D14): ≥ 32 µg/mL | MIC (E. faecium D24; Enterococcus faecium, D24; read-out: MIC D24): > 32 µg/mL | MIC (E. faecium D25; Enterococcus faecium, D25; read-out: MIC D25): > 32 µg/mL | MIC (E. faecium D29; Enterococcus faecium, D29; read-out: MIC D29): > 32 µg/mL | MIC (E. faecium E007; E007, tetracycline-resistant strain, read-out: MIC E007): > 32 µg/mL | MIC (E. faecium strain C68 [2]; Enterococcus faecium, C68, 18 h; read-out: MIC EF C68): > 32 µg/mL | MIC (E. faecium strain C68 [2]; Enterococcus faecium, C68; BHI media only, 37 °C, 18 h; read-out: MIC Media Only): > 32 µg/mL | MIC (E. faecium strain C68 [3]; BHI + 8 µM ZnSO4, read-out: MIC + ZnSO4 (8 µM)): > 32 µg/mL | MIC (E. faecium strain C68 [3]; BHI + 1 mM MgSO4, read-out: MIC + MgSO4 (1 mM)): > 32 µg/mL | MIC (E. faecium strain C68 [3]; BHI + 2.5 mM CaCl2, read-out: MIC + CaCl2 (2.5 mM)): > 32 µg/mL | MIC (E. faecium strain C68 [3]; BHI + 150 mM NaCl, read-out: MIC + NaCl (150 mM)): > 32 µg/mL | MIC (E. faecium WC176): > 32 µg/mL
